The results in this text go back to PMC8808171, “Nonselective TRPC channel inhibition and suppression of aminoglycoside-induced premature termination codon readthrough by the small molecule AC1903” (The Journal of Biological Chemistry, 2022).

The experiment deals with T1, TRPC6:C6 (Homo sapiens, UniProt Q9Y210).
T1 construct: expressed in transfected cells; host or cells: WT HEK 293 (transient)
Kind of experiment: [Ca2+]i recordings (Fura-2), TRPC6:C6 in HEK 293 cells. It counts as cell-based. The method, then: Based on the findings described above, we wondered whether AC1903—which is typically used as a TRPC5 inhibitor at concentrations of 30–100 μM in cellular assays ([29], [56])—might have limited selectivity for TRPC5 channels and whether its effect on intracellular G418 levels and PTC readthrough might be the consequence of inhibition of other or multiple targets. All well-characterized TRPC channel inhibitors reported to date modulate multiple TRP(C) channels ([34], [35], [36]). […] Because limited data for the selectivity of AC1903 are available in the public domain, we decided to profile AC1903 against a selection of calcium-permeable cation channels by intracellular calcium ([Ca^2+]i) recordings using well-characterized cell lines and TRP channel activators ([46], [57], [58]), and the Ca^2+ indicator Fura-2. In these assays, cells (HEK 293, HEK T-REx, or CHO) overexpressing the relevant ion channel protein and loaded with Fura-2 AM (a cell-permeable precursor of Fura-2) were preincubated with various concentrations of AC1903 or vehicle (DMSO) for 30 min. Then, changes in ratiometric fluorescence (from background) were recorded upon addition of the respective ion channel activator. […]

The term IC50 denotes the concentration that gives 50% inhibition. The low end stands for greater potency in that assay, the high end for weaker potency in that assay. What is called Hill slope is the slope factor of the fitted curve.

T1 sequence (Q9Y210 whole entry): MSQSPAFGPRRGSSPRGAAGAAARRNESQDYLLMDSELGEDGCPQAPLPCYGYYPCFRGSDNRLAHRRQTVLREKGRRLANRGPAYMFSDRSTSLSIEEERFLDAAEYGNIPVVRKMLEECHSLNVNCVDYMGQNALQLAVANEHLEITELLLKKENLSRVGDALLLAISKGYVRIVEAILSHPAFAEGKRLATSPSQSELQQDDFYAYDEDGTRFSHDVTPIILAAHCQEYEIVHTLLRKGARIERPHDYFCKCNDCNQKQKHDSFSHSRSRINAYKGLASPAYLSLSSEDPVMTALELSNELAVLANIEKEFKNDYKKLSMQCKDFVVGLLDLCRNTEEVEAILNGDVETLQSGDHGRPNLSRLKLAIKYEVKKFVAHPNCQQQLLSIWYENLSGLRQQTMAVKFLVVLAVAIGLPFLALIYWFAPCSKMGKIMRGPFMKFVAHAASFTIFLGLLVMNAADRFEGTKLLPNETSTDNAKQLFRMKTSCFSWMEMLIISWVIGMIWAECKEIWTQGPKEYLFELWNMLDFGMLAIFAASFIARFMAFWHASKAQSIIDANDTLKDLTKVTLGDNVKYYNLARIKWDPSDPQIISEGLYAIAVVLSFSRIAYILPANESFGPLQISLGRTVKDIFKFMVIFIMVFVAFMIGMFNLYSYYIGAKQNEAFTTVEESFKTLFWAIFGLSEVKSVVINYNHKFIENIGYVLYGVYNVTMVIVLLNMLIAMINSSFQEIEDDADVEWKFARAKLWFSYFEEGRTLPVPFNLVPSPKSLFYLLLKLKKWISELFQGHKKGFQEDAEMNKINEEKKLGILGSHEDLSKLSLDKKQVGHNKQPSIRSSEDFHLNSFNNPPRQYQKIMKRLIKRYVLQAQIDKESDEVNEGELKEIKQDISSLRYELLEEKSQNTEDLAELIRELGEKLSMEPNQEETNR

For the setting “HEK 293, activator OAG (100 μM)”, `c1ccc(Cn2c(NCc3ccco3)nc3ccccc32)cc1` [AC1903] registered an IC50 of 15 µM. Moreover, the Hill slope (activator OAG) is on record as -1.5.
